Publication PMC5461267, “Membrane Guanylate Cyclase catalytic Subdomain: Structure and Linkage with Calcium Sensors and Bicarbonate” (Frontiers in Molecular Neuroscience, 2017)
Substitutions are numbered along the chain they refer to.

Assays:
[1] = molecular target: T1, ROS-GC1 (rod outer segment guanylate cyclase type 1), full-length recombinant (Bos taurus, UniProt P55203, A1013R/D890A); assay: biochemical
T1 construct: gene GUCY2D
T1 sequence (P55203 57-1110 D890A/A1013R): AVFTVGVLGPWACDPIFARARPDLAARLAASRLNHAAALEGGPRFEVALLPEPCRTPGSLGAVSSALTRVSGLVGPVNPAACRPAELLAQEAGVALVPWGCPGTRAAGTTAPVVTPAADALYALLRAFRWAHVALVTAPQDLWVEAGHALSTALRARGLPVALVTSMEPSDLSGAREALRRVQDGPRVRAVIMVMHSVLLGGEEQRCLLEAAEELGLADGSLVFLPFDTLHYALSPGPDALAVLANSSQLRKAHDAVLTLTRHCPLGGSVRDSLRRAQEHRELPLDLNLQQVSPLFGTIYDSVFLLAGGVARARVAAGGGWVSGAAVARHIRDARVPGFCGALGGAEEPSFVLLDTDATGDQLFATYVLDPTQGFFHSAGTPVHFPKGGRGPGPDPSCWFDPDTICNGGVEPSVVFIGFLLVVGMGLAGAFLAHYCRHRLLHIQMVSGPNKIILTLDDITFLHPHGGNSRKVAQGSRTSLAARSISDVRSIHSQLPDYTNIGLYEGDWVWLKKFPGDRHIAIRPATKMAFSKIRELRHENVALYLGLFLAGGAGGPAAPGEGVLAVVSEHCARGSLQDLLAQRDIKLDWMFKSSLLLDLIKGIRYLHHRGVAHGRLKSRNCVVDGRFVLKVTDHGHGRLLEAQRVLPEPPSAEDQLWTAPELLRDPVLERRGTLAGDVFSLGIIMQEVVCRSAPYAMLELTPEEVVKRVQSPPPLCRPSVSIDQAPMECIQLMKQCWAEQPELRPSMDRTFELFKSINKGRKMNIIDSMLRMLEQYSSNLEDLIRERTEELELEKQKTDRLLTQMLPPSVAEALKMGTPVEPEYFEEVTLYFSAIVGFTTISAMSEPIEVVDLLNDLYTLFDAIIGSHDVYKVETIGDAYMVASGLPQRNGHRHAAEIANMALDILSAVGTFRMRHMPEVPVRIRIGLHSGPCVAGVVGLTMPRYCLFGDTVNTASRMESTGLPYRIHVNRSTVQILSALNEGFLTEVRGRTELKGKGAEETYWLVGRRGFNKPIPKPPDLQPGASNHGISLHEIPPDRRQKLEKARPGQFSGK

[2] = molecular target: T2, ROS-GC1 (rod outer segment guanylate cyclase type 1), full-length recombinant (Bos taurus, UniProt P55203, A1013R/D934A); assay: biochemical
T2 construct: gene GUCY2D
T2 sequence (P55203 57-1110 D934A/A1013R): T1 sequence (P55203 57-1110 D890A/A1013R) with A834D, D878A

- EC50 [1]: ~30 mM
- EC50 [2]: ~30 mM
SMILES: O=C(O)O [bicarbonate]
